According to patent US20050026911A1, “Benzotriazapinone salts and methods for using same” (priority 2003, published 2005):

Biological target: T1, gastrin (CCK2) receptors (Rattus norvegicus, UniProt P30553)
T1 construct: The stomach was excised and flushed with ca. 1 ml of unbuffered physiological saline solution; from tissue; host or cells: isolated whole stomach of immature rats (ca. 21 days old)
T1 sequence (P30553 1-452): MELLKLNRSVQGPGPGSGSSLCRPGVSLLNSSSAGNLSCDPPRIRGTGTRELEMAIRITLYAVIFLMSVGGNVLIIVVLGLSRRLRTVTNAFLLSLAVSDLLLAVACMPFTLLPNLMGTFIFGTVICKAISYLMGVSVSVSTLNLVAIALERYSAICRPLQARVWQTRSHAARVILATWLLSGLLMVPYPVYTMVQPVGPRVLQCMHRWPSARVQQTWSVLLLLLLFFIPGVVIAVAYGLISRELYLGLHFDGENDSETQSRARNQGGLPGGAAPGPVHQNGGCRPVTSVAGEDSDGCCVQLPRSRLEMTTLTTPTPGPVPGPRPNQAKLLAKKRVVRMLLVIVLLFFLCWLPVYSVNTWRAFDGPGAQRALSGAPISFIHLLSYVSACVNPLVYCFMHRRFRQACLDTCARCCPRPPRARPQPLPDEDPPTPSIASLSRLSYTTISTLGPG
Assay: gastrin (CCK2) antagonist activity in an immature rat stomach assay
Conditions: pentagastrin dose-response curves, acid secretion, read-out: pKB rat stomach (converted)
Protocol: The compounds of the examples were tested for gastrin (CCK2) antagonist activity in an immature rat stomach assay. The procedure was as follows:
The oesophagus of immature rats (33-50 g, ca. 21 days old) was ligated at the level of the cardiac sphincter and the duodenal sphincter was cannulated. The stomach was excised and flushed with ca. 1 ml of unbuffered physiological saline solution. The fundus was punctured and cannulated. A further 4-5 ml of unbuffered solution was flushed through the stomach to ensure the preparation was not leaking. […] The stomach was continuously perfused at a rate of 1 ml min^−1 with unbuffered solution gassed with 100% O2 with the perfusate passing over an internally referenced pH-electrode fixed 12 cm above the stomach.
After 120 min of stabilisation the drugs were added directly to the serosal solution in the organ bath and after a further 60 min cumulative pentagastrin dose-response curves were started.

Row | Kb [nM] | Structure (SMILES)
1 | 6.03 | CC(C)(C)C(=O)CN1C(=O)N(CC(=O)Nc2cccc(C(=O)O)c2)N=C(C2CCCCC2)c2c(F)cccc21 [Example 113, 3-{2-[5-Cyclohexyl-1-(3,3-dimethyl-2-oxo-butyl)-6-fluoro-2-oxo-1,2-dihydro-3H-1,3,4-benzotriazepin-3-yl]-acetylamino}-benzoic acid]
2 | 2.09 | CC(C)(C)C(=O)CN1C(=O)N(CC(=O)Nc2cccc3c2ccn3CC(=O)O)N=C(C2CCCCC2)c2ccccc21 [Example 127, (4-{2-[5-Cyclohexyl-1-(3,3-dimethyl-2-oxo-butyl)-2-oxo-1,2-dihydro-3H-1,3,4-benzotriazepin-3-yl]-acetylamino}-indol-1-yl)-acetic acid]
3 | 32.4 | CC(C)(C)C(=O)CN1C(=O)N(CC(=O)Nc2cccc(NCC(=O)O)c2)N=C(C2CCCCC2)c2ccccc21 [Example 52]
4 | 61.7 | CC(C)(C)C(=O)CN1C(=O)N(CC(=O)Nc2cccc(CC(=O)O)c2)N=C(C2CCCCC2)c2ccccc21 [Example 29, (3-{2-[5-Cyclohexyl-1-(3,3-dimethyl-2-oxo-butyl)-2-oxo-1,2-dihydro-3H-1,3,4-benzotriazepin-3-yl]-acetylamino}-phenyl)-acetic acid]
5 | 40.7 | Cc1ccc2c(c1)N(CC(=O)C(C)(C)C)C(=O)N(CC(=O)Nc1cccc(C(=O)O)c1)N=C2C1CCCCC1 [Example 112, 3-{2-[5-Cyclohexyl-1-(3,3-dimethyl-2-oxo-butyl)-8-methyl-2-oxo-1,2-dihydro-3H-1,3,4-benzotriazepin-3-yl]-acetylamino}-benzoic acid]
6 | 67.6 | CNc1cc(NC(=O)CN2N=C(C3CCCCC3)c3ccccc3N(CC(=O)C(C)(C)C)C2=O)cc(C(=O)O)c1 [Example 73, 3-{2-[5-Cyclohexyl-1-(3,3-dimethyl-2-oxo-butyl)-2-oxo-1,2-dihydro-3H-1,3,4-benzotriazepin-3-yl]-acetylamino}-5-methylamino-benzoic acid]
7 | 209 | CC(Nc1cccc(NC(=O)CN2N=C(C3CCCCC3)c3ccccc3N(CC(=O)C(C)(C)C)C2=O)c1)C(=O)O (racemic) [Example 75, 2-(3{2-[5-Cyclohexyl-1-(3,3-dimethyl-2-oxo-butyl)-2-oxo-1,2-dihydro-3H-1,3,4-benzotriazepin-3-yl]-acetylamino}-phenylamino)-propionic acid]
8 | 15.5 | CC(C)(C)C(=O)CN1C(=O)N(CC(=O)Nc2cccc3nn(CC(=O)O)cc23)N=C(C2CCCCC2)c2ccccc21 [Example 142, (4-{2-[5-Cyclohexyl-1-(3,3-dimethyl-2-oxo-butyl)-2-oxo-1,2-dihydro-3H-1,3,4-benzotriazepin-3-yl]-acetylamino}-indazol-2-yl)-acetic acid]
9 | 93.3 | CC(C)(C)C(=O)CN1C(=O)N(CC(=O)NCc2cccc(C(=O)O)c2)N=C(C2CCCCC2)c2ccccc21 [Example 45, 3-({2-[5-Cyclohexyl-1-(3,3-dimethyl-2-oxo-butyl)-2-oxo-1,2-dihydro-3H-1,3,4-benzotriazepin-3-yl]-acetylamino}-methyl)-benzoic acid]

Second part, the compound before the results:

Row | Structure (SMILES) | Kb [nM]
10 | CC(C)(C)C(=O)CN1C(=O)N(CC(=O)Nc2cccc(O)c2)N=C(C2CCCCC2)c2ccccc21 [Example 84, 2-[5-Cyclohexyl-1-(3,3-dimethyl-2-oxo-butyl)-2-oxo-1,2-dihydro-3H-1,3,4-benzotriazepin-3-yl]-N-(3-hydroxy-phenyl)-acetamide] | 27.5
11 | C=C(CN1C(=O)N(CC(=O)Nc2cccc(CC(=O)O)c2)N=C(C2CCCCC2)c2ccccc21)C(C)(C)C [Example 152, (3-{2-[1-(2-tert-Butyl-allyl)-5-cyclohexyl-2-oxo-1,2-dihydro-3H-1,3,4-benzotriazepin-3-yl]-acetylamino}-phenyl)-acetic acid] | 50.1
12 | O=C(O)Cc1cccc(NC(=O)CN2N=C(c3ccccn3)c3ccccc3N(CC(=O)C3CCCC3)C2=O)c1 [Example 81] | 72.4
13 | CNc1cccc(NC(=O)CN2N=C(C3CCCC3)c3ccccc3N(CC(=O)C(C)(C)C)C2=O)c1 [Example 11, 2-[5-Cyclopentyl-1-(3,3-dimethyl-2-oxo-butyl)-2-oxo-1,2-dihydro-3H-1,3,4-benzotriazepin-3-yl]-N-(3-methylaminophenyl)-acetamide] | 44.7
14 | O=C(CN1N=C(C2CCCCC2)c2ccccc2N(CC(=O)C2CCCC2)C1=O)Nc1cccc(-c2ccc(C(=O)O)o2)c1 [Example 149] | 1.1
15 | O=C(CN1N=C(C2CCCCC2)c2ccccc2N(CC(=O)C2CCCC2)C1=O)Nc1cccc(-c2nc(C(=O)O)co2)c1 [Example 148, 2-(3-{2-[5-Cyclohexyl-1-(2-cyclopentyl-2-oxo-ethyl)-2-oxo-1,2-dihydro-3H-1,3,4-benzotriazepin-3-yl]-acetylamino}-phenyl)-oxazole-4-carboxylic acid] | 3.89
16 | CC(C)(C)C(=O)CN1C(=O)N(CC(=O)Nc2cccc(-c3ccc(C(=O)O)o3)c2)N=C(C2CCCCC2)c2ccccc21 [Example 145, 5-(3-{2-[5-Cyclohexyl-1-(3,3-dimethyl-2-oxo-butyl)-2-oxo-1,2-dihydro-3H-1,3,4-benzotriazepin-3-yl]-acetylamino}-phenyl)-furan-2-carboxylic acid] | 3.39
17 | O=C(O)Cn1ccc2ccc(NC(=O)CN3N=C(C4CCCCC4)c4ccccc4N(CC(=O)C4CCCC4)C3=O)cc21 [Example 126, (6-{2-[5-Cyclohexyl-1-(2-cyclopentyl-2-oxo-ethyl)-2-oxo-1,2-dihydro-3H-1,3,4-benzotriazepin-3-yl]-acetylamino}-indol-1-yl)-acetic acid] | 0.0575
18 | CC(C)(CO)C(=O)CN1C(=O)N(CC(=O)Nc2cccc(CC(=O)O)c2)N=C(C2CCCCC2)c2ccccc21 [Example 110, (3-{2-[5-Cyclohexyl-1-(4-hydroxy-3,3-dimethyl-2-oxo-butyl)-2-oxo-1,2-dihydro-3H-1,3,4-benzotriazepin-3-yl]-acetylamino}-phenyl)-acetic acid] | 93.3
19 | O=C(CN1N=C(C2CCCCC2)c2ccccc2N(CC(=O)N2CCOCC2)C1=O)Nc1cccc(C(=O)O)c1 [Example 68, 3-{2-[5-Cyclohexyl-1-(2-morpholin-4-yl-2-oxo-ethyl)-2-oxo-1,2-dihydro-3H-1,3,4-benzotriazepin-3-yl]-acetylamino}-benzoic acid] | 81.3
20 | CC1CCC(C2=NN(CC(=O)Nc3cccc(C(=O)O)c3)C(=O)N(CC(=O)C(C)(C)C)c3ccccc32)CC1 (centres unmarked) [Example 102, 3-{2-[1-(3,3-Dimethyl-2-oxo-butyl)-5-(4-methyl-cyclohexyl)-2-oxo-1,2-dihydro-3H-1,3,4-benzotriazepin-3-yl]-acetylamino}-benzoic acid] | 0.776
21 | CC(C)(C)C(=O)CN1C(=O)N(CC(=O)Nc2cccc(N3CCOCC3)c2)N=C(C2CCCCC2)c2ccccc21 [Example 123, 2-[5-Cyclohexyl-1-(3,3-dimethyl-2-oxo-butyl)-2-oxo-1,2-dihydro-3H-1,3,4-benzotriazepin-3-yl]-N-(3-morpholin-4-yl-phenyl)-acetamide] | 18.2
22 | CC(C)(C)C(=O)CN1C(=O)N(CC(=O)Nc2ccccn2)N=C(C2CCCCC2)c2ccccc21 [Example 63, 2-[5-Cyclohexyl-1-(3,3-dimethyl-2-oxo-butyl)-2-oxo-1,2-dihydro-3H-1,3,4-benzotriazepin-3-yl]-N-pyridin-2-yl-acetamide] | 661
23 | O=C(CN1N=C(C2CCCCC2)c2ccccc2N(CC(=O)C23CC4CC(CC(C4)C2)C3)C1=O)Nc1cccc(C(=O)O)c1 [Example 17, 3-{2-[1-(2-Adamantan-1-yl-2-oxo-ethyl)-5-cyclohexyl-2-oxo-1,2-dihydro-3H-1,3,4-benzotriazepin-3-yl]-acetylamino}-benzoic acid] | 115
24 | O=C(CN1N=C(C2CCCCC2)c2ccccc2N(CC(=O)C2CCCC2)C1=O)Nc1cccc(-c2nnn[nH]2)c1 [Example 125, 2-[5-Cyclohexyl-1-(2-cyclopentyl-2-oxo-ethyl)-2-oxo-1,2-dihydro-3H-1,3,4-benzotriazepin-3-yl]-N-[3-(2H-tetrazol-5-yl)-phenyl]-acetamide] | 4.37
25 | CC1(C(=O)CN2C(=O)N(CC(=O)Nc3cccc(CC(=O)O)c3)N=C(C3CCCCC3)c3ccccc32)CCCCC1 [Example 133, [3-(2-{5-Cyclohexyl-1-[2-(1-methyl-cyclohexyl)-2-oxo-ethyl]-2-oxo-1,2-dihydro-3H-1,3,4-benzotriazepin-3-yl}-acetylamino)-phenyl]-acetic acid] | 14.1
26 | CC(C)(C)C(=O)CN1C(=O)N(CC(=O)Nc2ccc3c(c2)N(CC(=O)O)CC3)N=C(C2CCCCC2)c2ccccc21 [Example 34, (6-{2-[5-Cyclohexyl-1-(3,3-dimethyl-2-oxo-butyl)-2-oxo-1,2-dihydro-3H-1,3,4-benzotriazepin-3-yl]-acetylamino}-2,3-dihydro-indol-1-yl)-acetic acid] | 15.8
